Measurements from BindingDB's records for doi:10.1021/jm00102a007 (University of South Florida, 1993).

Target: T1, Adenosine receptor A1 (Cavia porcellus, UniProt P47745)
T1 sequence (P47745 whole entry): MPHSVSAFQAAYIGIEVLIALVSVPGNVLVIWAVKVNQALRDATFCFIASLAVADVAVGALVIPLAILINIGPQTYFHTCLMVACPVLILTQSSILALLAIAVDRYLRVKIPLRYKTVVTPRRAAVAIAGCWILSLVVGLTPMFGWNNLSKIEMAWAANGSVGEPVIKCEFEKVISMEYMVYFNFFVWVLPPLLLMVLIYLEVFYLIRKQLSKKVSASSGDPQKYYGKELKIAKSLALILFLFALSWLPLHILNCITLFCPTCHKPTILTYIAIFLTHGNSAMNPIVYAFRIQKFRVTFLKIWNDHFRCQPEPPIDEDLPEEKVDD
Test: ChEBML_29278
From the text: In vitro prolonging of the stimulus-QRS interval in guinea pig heart.

An EC50 of 25.1 µM was found for `CCCCCN=Nc1nc(N)c2ncn(C3O[C@H](CO)[C@@H](O)[C@H]3O)c2n1` (stereo partly specified) in this work.
